Laboratory results: patent US8211828B2 (priority 2007, dated 2012)

What follows are compounds tested on Phytophthora infestans (assay: microbe, parasite or virus in culture). Details: 168 h, read-out: Observed effect (%).
Type: cell-based
Work on Cc1nc2ncnn2c(N)c1CCC(C)CC(C)(C)C (stereo not shown) [7-3] yielded an inhibition of growth at 1 ppm of 31%. Cn1cc(C(=O)Nc2ccccc2-c2cc(F)c(F)cc2F)c(C(F)F)n1 [Compound 3-10, N-(2′,4′,5′-trifluorobiphenyl-2-yl)-3-difluoromethyl-1-methyl-1H-pyrazole-4-carboxamide] showed an inhibition of growth at 1 ppm of 1% and an inhibition of growth at 4 ppm of 6%. For CCCCCCCCc1c(CC)nc2nc(N)nn2c1N [7-5], the inhibition of growth at 0.25 ppm was 27% and the inhibition of growth at 4 ppm was 73%. Cn1cc(C(=O)Nc2ccccc2-c2cc(F)c(F)c(F)c2)c(C(F)F)n1 [Compound 3-9, N-(3′,4′,5′-trifluorobiphenyl-2-yl)-3-difluoromethyl-1-methyl-1H-pyrazole-4-carboxamide] showed an inhibition of growth at 4 ppm of 9%. For Cn1cc(C(=O)Nc2ccccc2-c2ccc(F)c(F)c2F)c(C(F)(F)F)n1 [Compound 3-7, N-(2′,3′,4′-trifluorobiphenyl-2-yl)-3-trifluoromethyl-1-methyl-1H-pyrazole-4-carboxamide], the inhibition of growth at 1 ppm was 1% and the inhibition of growth at 4 ppm was 4%. In the case of CCCCCCCCc1c(CCC)nc2ncnn2c1N [7-9], the inhibition of growth at 1 ppm is reported as 20% and the inhibition of growth at 4 ppm is reported as 58%. CC(CCc1c(C(F)(F)F)nc2ncnn2c1N)CC(C)(C)C (stereo not shown) [7-12] gave an inhibition of growth at 16 ppm of 66%. For Cn1cc(C(=O)Nc2ccccc2-c2cc(F)c(F)c(F)c2)c(CF)n1 [Compound 3-11, N-(3′,4′,5′-trifluorobiphenyl-2-yl)-3-fluoromethyl-1-methyl-1H-pyrazole-4-carboxamide], the inhibition of growth at 1 ppm was 7% and the inhibition of growth at 16 ppm was 9%. Cc1cc(-c2ccccc2NC(=O)c2cn(C)nc2C(F)F)c(F)cc1Cl [Compound 3-8, N-(2′-fluoro-4′-chloro-5′-methylbiphenyl-2-yl)-3-difluoromethyl-1-methyl-1H-pyrazole-4-carboxamide] was tested, and the inhibition of growth at 4 ppm was 10% and the inhibition of growth at 16 ppm was 20%. Compound COc1cc(-c2ccccc2NC(=O)c2cn(C)nc2C(F)(F)F)c(F)cc1Cl [Compound 3-1, N-(2′-fluoro-4′-chloro-5′-methoxybiphenyl-2-yl)-3-trifluoromethyl-1-methyl-1H-pyrazole-4-carboxamide] has an inhibition of growth at 1 ppm of 0%, an inhibition of growth at 4 ppm of 0% and an inhibition of growth at 16 ppm of 4%. Cn1cc(C(=O)Nc2ccccc2-c2ccc(F)c(F)c2F)c(CF)n1 [Compound 3-14, N-(2′,3′,4′-trifluorobiphenyl-2-yl)-3-fluoromethyl-1-methyl-1H-pyrazole-4-carboxamide] was tested, and the inhibition of growth at 1 ppm was 3%, the inhibition of growth at 4 ppm was 11% and the inhibition of growth at 16 ppm was 18%. Work on COc1cc(-c2ccccc2NC(=O)c2cn(C)nc2C(F)F)c(F)cc1Cl [Compound 3-6, N-(2′-fluoro-4′-chloro-5′-methoxybiphenyl-2-yl)-3-difluoromethyl-1-methyl-1H-pyrazole-4-carboxamide] yielded an inhibition of growth at 1 ppm of 0%, an inhibition of growth at 4 ppm of 3% and an inhibition of growth at 16 ppm of 18%. For CCCCCCCCc1c(C)nc2ncnn2c1N [7-4], the inhibition of growth at 4 ppm was 45%. Cn1cc(C(=O)Nc2ccccc2-c2cc(F)c(F)c(F)c2)c(C(F)(F)F)n1 [Compound 3-3, N-(3′,4′,5′-trifluorobiphenyl-2-yl)-3-trifluoromethyl-1-methyl-1H-pyrazole-4-carboxamide] gave an inhibition of growth at 0.25 ppm of 0%, an inhibition of growth at 1 ppm of 0% and an inhibition of growth at 4 ppm of 0%.

The compounds below were run on Puccinia recondita (assay: Curative activity against brown rust of wheat caused by Puccinia recondita (greenhouse)). Details: single active compound, 0.25 ppm, control 90% infection.
Type: in vivo
Procedure: The expected efficacies of active compound combinations were determined using Colby's formula (Colby, S. R. “Calculating synergistic and antagonistic responses of herbicide combinations”, Weeds, 15, 20-22, 1967) and compared with the observed efficacies. Colby's formula: E=x+y−x·y/100 • E expected efficacy, expressed in % of the untreated control, when using the mixture of the active compounds A and B at the concentrations a and b; • x efficacy, expressed in % of the untreated control, when using the active compound A at the concentration a; • y efficacy, expressed in % of the untreated control, when using the active compound B at the concentration b. Micro Tests
The active compounds were separately or jointly prepared as a stock solution comprising 25 mg of active compound which was made up to 10 ml using a mixture of acetone and/or dimethyl sulfoxide and the emulsifier Uniperol® EL (wetting agent having emulsifying and dispersing action based on ethoxylated alkylphenols) in a volume ratio of solvent/emulsifier of 99 to 1. The mixture was then made up with water to 100 ml. This stock solution was diluted with the solvent/emulsifier/water mixture described to the concentration of active compound stated below.
Leaves of potted wheat seedlings were inoculated with a spore suspension of brown rust (Puccinia recondita). The pots were then placed in a chamber with high atmospheric humidity (90 to 95%) and 20 to 22° C. for 24 hours. During this time, the spores germinated and the germ tubes penetrated into the leaf tissue. The next day, the infected plants were sprayed to runoff point with the active compound solution described above at the active compound concentration stated below. After the spray coating had dried on, the test plants were cultivated in a greenhouse at temperatures between 20 and 22° C. and at 65 to 70% relative atmospheric humidity for 7 days. The extent of the rust fungus development on the leaves was then determined.
(§1) The visually determined percentages of infected leaf areas were converted into efficacies in % of the untreated control.
The efficacy (E) is calculated as follows using Abbot's formula: Abbot's formula: E=(1−α/β)·100 • α corresponds to the fungicidal infection of the treated plants in % and • β corresponds to the fungicidal infection of the untreated (control) plants in %
An efficacy of 0 means that the infection level of the treated plants corresponds to that of the untreated control plants; an efficacy of 100 means that the treated plants were not infected.
In the case of Cn1cc(C(=O)Nc2ccccc2-c2cc(F)c(F)c(F)c2)c(C(F)F)n1 [Compound 3-9, N-(3′,4′,5′-trifluorobiphenyl-2-yl)-3-difluoromethyl-1-methyl-1H-pyrazole-4-carboxamide], the “Observed effect (%)” value is reported as 0%.

Same assay, conditions: single active compound, 1 ppm, control 90% infection
CCc1nc2ncnn2c(N)c1CCC(C)CC(C)(C)C (stereo not shown) [7-8] was tested, and the “Observed effect (%)” value was 0%. CCCCCCCCc1nc2ncnn2c(N)c1CC [7-6] was tested, and the “Observed effect (%)” value was 0%. For CCCCCCCCc1c(CC)nc2nc(N)nn2c1N [7-5], the “Observed effect (%)” value was 0%.

These compounds were tested on Puccinia recondita (assay: Protective activity against Puccinia recondita on wheat (brown rust of wheat) (greenhouse)). Details: single active compound, 0.25 ppm, control 80% infection.
Type: in vivo
Procedure: The expected efficacies of active compound combinations were determined using Colby's formula (Colby, S. R. “Calculating synergistic and antagonistic responses of herbicide combinations”, Weeds, 15, 20-22, 1967) and compared with the observed efficacies. Colby's formula: E=x+y−x·y/100 • E expected efficacy, expressed in % of the untreated control, when using the mixture of the active compounds A and B at the concentrations a and b; • x efficacy, expressed in % of the untreated control, when using the active compound A at the concentration a; • y efficacy, expressed in % of the untreated control, when using the active compound B at the concentration b. Micro Tests […]
as §1
The efficacy (E) is calculated as follows using Abbot's formula: Abbot's formula: E=(1−α/β)·100 • α corresponds to the fungicidal infection of the treated plants in % and • β corresponds to the fungicidal infection of the untreated (control) plants in % […]
Leaves of potted wheat seedlings were sprayed to runoff point with an aqueous suspension having the active compound concentration stated below. […] The extent of the rust fungus development on the leaves was then determined visually.
Cn1cc(C(=O)Nc2ccccc2-c2cc(F)c(F)c(F)c2)c(C(F)F)n1 [Compound 3-9, N-(3′,4′,5′-trifluorobiphenyl-2-yl)-3-difluoromethyl-1-methyl-1H-pyrazole-4-carboxamide] was tested, and the “Observed effect (%)” value was 50%.

Same assay, conditions: single active compound, 1 ppm, control 80% infection
With Cc1nc2ncnn2c(N)c1-c1ccc(Cl)c(Cl)c1 [7-1] the “Observed effect (%)” value was 0%.
